For assay [1], the system named is T47D (PI3Kα-H1047R) cell line. Put plainly: HTRF phospho-AKT(S473) cell assay in T47D cells. Format: cell-based, human. In outline:
(§1)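 pAKT(S473) in lysates read by HTRF after a 2 h, 37 °C compound exposure (12-point 1:3 series, max 0.5% DMSO). SKBR3 (wild type, top 10 μM) received 70 ng/ml PDGF-BB during the final 15 min; T47D (H1047R, top 5 μM) was unstimulated. IC50 values derived from the dose-response.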

In assay [2] the test system is SKBR3 (PI3Kα-Wild Type) cell line. As to the kind of experiment: HTRF phospho-AKT(S473) cell assay in SKBR3 cells. Format: cell-based, human. The method, boiled down:
as §1

[3] abbreviates: Homo sapiens; T47D (PI3Kα-H1047R) cells, HTRF phospho-AKT(S473), 2 hours compound incubation.
Where [4] appears, read: Homo sapiens, SK-BR-3; SKBR3 (PI3Kα-Wild Type) cells, HTRF phospho-AKT(S473), 2 hours compound incubation, PDGF-BB stimulated.
Where [5] appears, read: Homo sapiens; HTRF phospho-AKT(S473), T47D (PI3Kα-H1047R) cells, 2 hours compound incubation.
The mark [6] stands for this setting: Homo sapiens, SK-BR-3; HTRF phospho-AKT(S473), SKBR3 (PI3Kα-Wild Type) cells, 2 hours compound incubation, PDGF-BB stimulated.

With `Cc1cc([C@@H](C)Nc2ccc(Cl)nc2C(=O)NS(C)(=O)=O)c2nc(N3CCO[C@H](c4cnn(C)c4)C3)n(C)c(=O)c2c1` (relative stereo) [Compound 313, 6-chloro-3-(((R)-1-(3,6-dimethyl-2-((R*)-2-(1-methyl-1H-pyrazol-4-yl)morpholino)-4-oxo-3,4-dihydroquinazolin-8-yl)ethyl)amino)-N-(methylsulfonyl) picolinamide], the IC50 in assay [1] (setting [3]) was in the range of 250 to 500 nM; in assay [2] (setting [4]), 1000 to 5000 nM.

As for `[2H]C([2H])([2H])n1nccc1C1CCN(c2nc3c([C@@H](C)Nc4ccc(Cl)nc4C(=O)NS(C)(=O)=O)cc(C)cc3c(=O)n2C)CC1` [Compound 747, (R)-6-chloro-3-((1-(3,6-dimethyl-2-(4-(1-(methyl-d3)-1H-pyrazol-5-yl)piperidin-1-yl)-4-oxo-3,4-dihydroquinazolin-8-yl)ethyl)amino)-N-(methylsulfonyl) picolinamide], the IC50 is < 250 nM in assay [1] (setting [5]) and 1000 to 5000 nM in assay [2] (setting [6]).

For `Cc1cc([C@@H](C)Nc2ccc(Cl)nc2C(=O)NS(C)(=O)=O)c2nc(N3CCC[C@@H](c4ccnn4C(F)F)C3)n(C)c(=O)c2c1` (relative stereo) [Compound 771, 6-chloro-3-(((R)-1-(2-((R*)-3-(1-(difluoromethyl)-1H-pyrazol-5-yl)piperidin-1-yl)-3,6-dimethyl-4-oxo-3,4-dihydroquinazolin-8-yl)ethyl)amino)-N-(methylsulfonyl) picolinamide], the IC50 in assay [1] (setting [5]) is 250 to 500 nM; in assay [2] (setting [6]) it was ≥ 5000 nM.

For `Cc1cc([C@@H](C)Nc2ccc(Cl)nc2C(=O)NS(C)(=O)=O)c2nc(N3CCC(c4ccn(C(F)(F)F)n4)CC3)n(C)c(=O)c2c1` [Compound 445, (R)-6-chloro-3-((1-(3,6-dimethyl-4-oxo-2-(4-(1-(trifluoromethyl)-1H-pyrazol-3-yl)piperidin-1-yl)-3,4-dihydroquinazolin-8-yl)ethyl)amino)-N-(methylsulfonyl) picolinamide], the IC50 is 250 to 500 nM in assay [1] (setting [5]) and ≥ 5000 nM in assay [2] (setting [6]).

Regarding `Cc1cc([C@@H](C)Nc2ccc(Cl)nc2C(=O)NS(=O)(=O)C2COC2)c2nc(N3Cc4ccc(F)cc4C3)n(C)c(=O)c2c1` [Compound 173, (R)-6-chloro-3-((1-(2-(5-fluoroisoindolin-2-yl)-3,6-dimethyl-4-oxo-3,4-dihydroquinazolin-8-yl)ethyl)amino)-N-(oxetan-3-ylsulfonyl)picolinamide], the IC50 in assay [1] (setting [3]) was < 250 nM; in assay [2] (setting [4]), 1000 to 5000 nM.

Take `Cc1cc([C@@H](C)Nc2ccc(Cl)nc2C(=O)NS(C)(=O)=O)c2nc(N3CCC(c4cc(C)n(C)n4)CC3)n(C)c(=O)c2c1` [Compound 287, (R)-6-chloro-3-((1-(2-(4-(1,5-dimethyl-1H-pyrazol-3-yl)piperidin-1-yl)-3,6-dimethyl-4-oxo-3,4-dihydroquinazolin-8-yl)ethyl)amino)-N-(methylsulfonyl) picolinamide]: the IC50 is < 250 nM in assay [1] (setting [3]) and 1000 to 5000 nM in assay [2] (setting [4]).

As for `C[C@@H](Nc1ccc(Cl)nc1C(=O)NS(C)(=O)=O)c1cc(F)cc2c(=O)n(C)c(N3CCC(c4ccn(C)n4)CC3)nc12` [Compound 366, (R)-6-chloro-3-((1-(6-fluoro-3-methyl-2-(4-(1-methyl-1H-pyrazol-3-yl)piperidin-1-yl)-4-oxo-3,4-dihydroquinazolin-8-yl)ethyl)amino)-N-(methylsulfonyl) picolinamide], the IC50 in assay [1] (setting [3]) was < 250 nM; in assay [2] (setting [4]), 1000 to 5000 nM.

In the case of `Cc1cc([C@@H](C)Nc2ccc(Cl)nc2C(=O)NS(C)(=O)=O)c2nc(N3CCN(c4ccc(C#N)cn4)CC3)n(C)c(=O)c2c1` [Compound 164, (R)-6-chloro-3-((1-(2-(4-(5-cyanopyridin-2-yl)piperazin-1-yl)-3,6-dimethyl-4-oxo-3,4-dihydroquinazolin-8-yl)ethyl)amino)-N-(methylsulfonyl) picolinamide], the IC50 in assay [1] (setting [3]) is < 250 nM; in assay [2] (setting [4]) it was 1000 to 5000 nM.

For the compound `Cc1cc([C@@H](C)Nc2ccc(Cl)nc2C(=O)NS(C)(=O)=O)c2nc(N3CC[C@@H](c4ccccc4)C3)n(C)c(=O)c2c1` [Compound 687, 6-chloro-3-(((R)-1-(3,6-dimethyl-4-oxo-2-((S)-3-phenylpyrrolidin-1-yl)-3,4-dihydroquinazolin-8-yl)ethyl)amino)-N-(methylsulfonyl) picolinamide], the values for the half-maximal inhibitory concentration (IC50) in assay [1] (setting [5]) and in assay [2] (setting [6]) were 250 to 500 nM and ≥ 5000 nM, respectively.

Consider `Cc1cc([C@@H](C)Nc2ccc(Cl)nc2C(=O)NS(C)(=O)=O)c2nc(N3CCc4nn(C5COC5)cc4C3)n(C)c(=O)c2c1` [Compound 334, (R)-6-chloro-3-((1-(3,6-dimethyl-2-(2-(oxetan-3-yl)-2,4,6,7-tetrahydro-5H-pyrazolo[4,3-c]pyridin-5-yl)-4-oxo-3,4-dihydroquinazolin-8-yl)ethyl)amino)-N-(methylsulfonyl) picolinamide], for which the IC50 in assay [1] (setting [3]) is < 250 nM; in assay [2] (setting [4]) it was 1000 to 5000 nM.

On to `Cc1cc([C@@H](C)Nc2ccc(Cl)nc2C(=O)NS(C)(=O)=O)c2nc(-c3cc(F)c4cn(C)nc4c3)n(C)c(=O)c2c1` [Compound 824, (R)-6-chloro-3-((1-(2-(4-fluoro-2-methyl-2H-indazol-6-yl)-3,6-dimethyl-4-oxo-3,4-dihydroquinazolin-8-yl)ethyl)amino)-N-(methylsulfonyl) picolinamide], for which the IC50 in assay [1] (setting [5]) was < 250 nM; in assay [2] (setting [6]), 1000 to 5000 nM.

Turning to `Cc1cc([C@@H](C)Nc2ccc(Cl)nc2C(=O)NS(C)(=O)=O)c2nc(N3C[C@@H]4[C@H](C3)[C@H]4c3cc4cccnn4n3)n(C)c(=O)c2c1` [Compound 620, 6-chloro-3-(((R)-1-(3,6-dimethyl-4-oxo-2-((1R,5S,6R)-6-(pyrazolo[1,5-b]pyridazin-2-yl)-3-azabicyclo[3.1.0]hexan-3-yl)-3,4-dihydroquinazolin-8-yl)ethyl)amino)-N-(methylsulfonyl) picolinamide], the IC50 in assay [1] (setting [5]) is < 250 nM; in assay [2] (setting [6]), 1000 to 5000 nM.

With `Cc1cc([C@@H](C)Nc2ccc(Cl)nc2C(=O)NS(C)(=O)=O)c2nc(N3Cc4cn(C5CC(F)(F)C5)nc4C3)n(C)c(=O)c2c1` [Compound 693, (R)-6-chloro-3-((1-(2-(2-(3,3-difluorocyclobutyl)-2,6-dihydropyrrolo[3,4-c]pyrazol-5(4H)-yl)-3,6-dimethyl-4-oxo-3,4-dihydroquinazolin-8-yl)ethyl)amino)-N-(methylsulfonyl) picolinamide], the IC50 in assay [1] (setting [5]) is < 250 nM; in assay [2] (setting [6]) it was 1000 to 5000 nM.

For `Cc1cc([C@@H](C)Nc2ccc(Cl)nc2C(=O)NS(C)(=O)=O)c2nc(-c3ccc4nn(C5COC5)cc4c3)n(C)c(=O)c2c1` [Compound 792, (R)-6-chloro-3-((1-(3,6-dimethyl-2-(2-(oxetan-3-yl)-2H-indazol-5-yl)-4-oxo-3,4-dihydroquinazolin-8-yl)ethyl)amino)-N-(methylsulfonyl) picolinamide], the values for the IC50 in assay [1] (setting [5]) and in assay [2] (setting [6]) were < 250 nM and 1000 to 5000 nM, respectively.

Take `Cc1cc([C@@H](C)Nc2ccc(Cl)nc2C(=O)NS(C)(=O)=O)c2nc(-c3ccc(O[C@@H]4CCN(C)CC4(F)F)nc3)n(C)c(=O)c2c1` [Compound 244, 6-chloro-3-(((R)-1-(2-(6-(((R)-3,3-difluoro-1-methylpiperidin-4-yl)oxy)pyridin-3-yl)-3,6-dimethyl-4-oxo-3,4-dihydroquinazolin-8-yl)ethyl)amino)-N-(methylsulfonyl) picolinamide]: the IC50 in assay [1] (setting [3]) is < 250 nM; in assay [2] (setting [4]) it was 1000 to 5000 nM.

As for `C[C@@H](Nc1ccc(Cl)nc1C(=O)NS(C)(=O)=O)c1cc(C2CC2)cc2c(=O)n(C)c(N3CCC(c4nn(C)cc4F)CC3)nc12` [Compound 397, (R)-6-chloro-3-((1-(6-cyclopropyl-2-(4-(4-fluoro-1-methyl-1H-pyrazol-3-yl)piperidin-1-yl)-3-methyl-4-oxo-3,4-dihydroquinazolin-8-yl)ethyl)amino)-N-(methylsulfonyl) picolinamide], the IC50 was 250 to 500 nM in assay [1] (setting [3]) and ≥ 5000 nM in assay [2] (setting [4]).

In the case of `Cc1cc([C@@H](C)Nc2ccc(Cl)nc2C(=O)NS(C)(=O)=O)c2nc(N3CCC4(CCN(c5ccn(C)n5)C4)CC3)n(C)c(=O)c2c1` [Compound 359, (R)-6-chloro-3-((1-(3,6-dimethyl-2-(2-(1-methyl-1H-pyrazol-3-yl)-2,8-diazaspiro[4.5]decan-8-yl)-4-oxo-3,4-dihydroquinazolin-8-yl)ethyl)amino)-N-(methylsulfonyl) picolinamide], the results for the IC50 in assay [1] (setting [3]) and in assay [2] (setting [4]) were 250 to 500 nM and ≥ 5000 nM, respectively.

With `Cc1cc([C@@H](C)Nc2ccc(Cl)nc2C(=O)NS(C)(=O)=O)c2nc(-c3ccc4nn(C5CC5)cc4c3)n(C)c(=O)c2c1` [Compound 819, (R)-6-chloro-3-((1-(2-(2-cyclopropyl-2H-indazol-5-yl)-3,6-dimethyl-4-oxo-3,4-dihydroquinazolin-8-yl)ethyl)amino)-N-(methylsulfonyl) picolinamide], the results for the IC50 in assay [1] (setting [5]) and in assay [2] (setting [6]) were 250 to 500 nM and 1000 to 5000 nM, respectively.

For `Cc1cc([C@@H](C)Nc2ccc(Cl)nc2C(=O)NS(C)(=O)=O)c2nc(N3CC[C@H](c4cnc(C)c(C#N)c4)C3)n(C)c(=O)c2c1` (single isomer, unassigned) [Compound 655, 6-chloro-3-(((R)-1-(2-((R*)-3-(5-cyano-6-methylpyridin-3-yl)pyrrolidin-1-yl)-3,6-dimethyl-4-oxo-3,4-dihydroquinazolin-8-yl)ethyl)amino)-N-(methylsulfonyl) picolinamide], the IC50 was 1000 to 5000 nM in assay [1] (setting [5]) and ≥ 5000 nM in assay [2] (setting [6]).

The IC50 is the concentration that inhibits the measured activity by half.
